Measured values taken from patent US20220202783A1, “Use Of ADAM9 Inhibitor As Immunomodulator” (China Medical University, priority 2019, published 2022).

What was measured:
Assay type in all cases: cell-based
[1] = cytotoxicity assay in 293 cells; design: key to effect of inhibiting tumor cell growth: “+” represents that the compound has the effect of inhibiting tumor cell growth; details: 293
[2] = test system: kidney cancer cells (293); assay: cytotoxicity assay in 293 cells; design: key to effect of inhibiting tumor cell growth: “+” represents that the compound has the effect of inhibiting tumor cell growth; details: Homo sapiens, HEK293
[3] = cytotoxicity assay in HNOF cells; design: key to effect of inhibiting tumor cell growth: “+” represents that the compound has the effect of inhibiting tumor cell growth; details: human, HNOF cells
HNOF = assay: cytotoxicity assay in HNOF cells; design: key to effect of inhibiting tumor cell growth: “+” represents that the compound has the effect of inhibiting tumor cell growth; details: HNOF
lung cancer cells (A549) = assay: cytotoxicity assay in A549 cells; design: key to effect of inhibiting tumor cell growth: “+” represents that the compound has the effect of inhibiting tumor cell growth; details: for IC50: Homo sapiens
Description: (§1) Please refer to FIG. 1A, FIG. 1B and Table 2, which show the analysis results of the compound of Formula (I) inhibiting ADAM9 activity. In FIG. 1A, Bm7 lung cancer cells were treated with the derivatives of the compound 6X-0310, and then cultured under anchorage-free culture condition. The expressions of ADAM9 and CDCP1 in Bm7 lung cancer cells were detected by Western blot, in which EF1α is an internal control, and mock represents Bm7 lung cancer cells without treatment. […] In the experiment, the compounds of Formula (I) of Example 1 to Example 32 were further performed cytotoxicity assay to measure the IC50 value of the compounds of Formula (I) of the present disclosure in lung cancer cell lines.

[4] = test system: lung cancer cells (H1299); assay: cytotoxicity assay in H1299 cells; design: key to effect of inhibiting tumor cell growth: “+” represents that the compound has the effect of inhibiting tumor cell growth; details: for effect of inhibiting tumor cell growth: H1299; for IC50: Homo sapiens, NCI-H1299
Description: as §1

lung cancer cells (TC1) = assay: cytotoxicity assay in TC1 cells; design: key to effect of inhibiting tumor cell growth: “+” represents that the compound has the effect of inhibiting tumor cell growth; details: for IC50: TC-1
Description: as §1

[5] = test system: lung cancer cells (Bm7brmx2); assay: cytotoxicity assay in Bm7brmx2 cells; design: key to effect of inhibiting tumor cell growth: “+” represents that the compound has the effect of inhibiting tumor cell growth
Description: as §1

[6] = test system: lung cancer cells (Bm7brmx2-1st); assay: cytotoxicity assay in Bm7brmx2-1st cells; design: key to effect of inhibiting tumor cell growth: “+” represents that the compound has the effect of inhibiting tumor cell growth
Description: as §1

[7] = test system: lung cancer cells (Bm7brmx2-2nd); assay: cytotoxicity assay in Bm7brmx2-2nd cells; design: key to effect of inhibiting tumor cell growth: “+” represents that the compound has the effect of inhibiting tumor cell growth
Description: as §1

Bm7 lung cancer cells = assay: cytotoxicity assay, FIG. 1B and Table 2 summary
Description: as §1

[8] = test system: CDCP1 in Bm7 lung cancer cells; assay: Western blot of ADAM9 and CDCP1 expression in Bm7 cells; details: anchorage-free culture
Description: as §1

Compound	effect of inhibiting tumor cell growth [1]	IC50 [2] [µM]	IC50 [3] [µM]	effect of inhibiting tumor cell growth (HNOF)	effect of inhibiting tumor cell growth (lung cancer cells (A549))	IC50 (lung cancer cells (A549)) [µM]	effect of inhibiting tumor cell growth [4]	IC50 [4] [µM]	effect of inhibiting tumor cell growth (lung cancer cells (TC1))	IC50 (lung cancer cells (TC1)) [µM]	IC50 [5] [µM]	effect of inhibiting tumor cell growth [5]	IC50 [6] [µM]	effect of inhibiting tumor cell growth [6]	IC50 [7] [µM]	effect of inhibiting tumor cell growth [7]	tumor cell cytotoxicity compared with the core structure compound 6X-0310 (Bm7 lung cancer cells)	expression of CDCP1 [8]
CSc1ccc(/C=C(/C#N)c2nc(CCN3C(=O)c4ccccc4C3=O)cs2)cc1 [4X-0296]	+	79.2	96.2	+	+	167	+	94.5	+	73.6	92	+	39.3	+	447	+	stronger tumor cell cytotoxicity	reduce the expression of CDCP1
O=C1c2ccccc2C(=O)N1CCc1csc(-c2nc(CCN3C(=O)c4ccccc4C3=O)cs2)n1 [12W-0290]	+	69.4	147	+	+	> 125	+	159	+	399	845	+	84.2	+	3980	+	–	–
O=C1c2ccccc2C(=O)N1CCc1csc(-c2ccccn2)n1 [12W-0266]	+	122	184	+	+	190	+	253	+	169	429	+	88.8	+	134	+	–	–
N#C/C(=C\c1ccncc1)c1nc(CCN2C(=O)c3ccccc3C2=O)cs1 [4X-0314]	+	269	153	+	+	527	+	38400	+	176	202	+	1420	+	15700	+	–	–
N#C/C(=C\c1ccc(OCc2cccc(C(F)(F)F)c2)cc1)c1nc(CCN2C(=O)c3ccccc3C2=O)cs1 [6X-0310]	+	58.9	141	+	+	200	+	116	+	111	176	+	54.6	+	250	+	–	reduce the expression of CDCP1
N#C/C(=C/c1ccc(OCc2ccccc2)cc1)c1nc(CCN2C(=O)c3ccccc3C2=O)cs1 [4X-0301]	+	49.5	77.6	+	+	161	+	102	+	71.9	128	+	61.2	+	310	+	–	–
O=C1c2ccccc2C(=O)N1CCc1csc(-c2ccccc2)n1 [11W-0296]	+	62.6	92	+	+	421	+	234	+	259	1260	+	175	+	147	+	–	–
N#C/C(=C\c1ccccc1Oc1ccc(Cl)cc1Cl)c1nc(CCN2C(=O)c3ccccc3C2=O)cs1 [4X-0312]	+	134	262	+	+	644	+	121	+	136	301	+	63.4	+	491	+	–	–
N#C/C(=C\c1cccc2ccccc12)c1nc(CCN2C(=O)c3ccccc3C2=O)cs1 [6X-0309]	+	82.2	114	+	+	> 125	+	93.8	+	89.4	89.8	+	628	+	385	+	–	–
COc1ccc(C(=O)Nc2nc(CCN3C(=O)c4ccccc4C3=O)cs2)cc1OC [5X-0314]	+	49.3	85.7	+	+	184	+	116	+	202	66.5	+	51	+	90.6	+	–	–
O=C1c2ccccc2C(=O)N1CCc1csc(Nc2ccc(Cl)c(Cl)c2)n1 [2X-0336]	+	58.7	80	+	+	128	+	101	+	55.9	117	+	37.6	+	63	+	–	–
N#C/C(=C/c1cccc(C(F)(F)F)c1)c1nc(CCN2C(=O)c3ccccc3C2=O)cs1 [4X-0302]	+	55.7	152	+	+	116	+	190	+	125	852	+	520	+	434	+	–	–
O=C1c2ccccc2C(=O)N1CCc1csc(-c2ccc(F)cc2)n1 [12W-0272]	+	134	600	+	+	177	+	845	+	823	391	+	130	+	264	+	–	–
